Like-named read-outs stand apart in the source and are kept apart here.
Key:
fibroblast cells = assay: MTT cell viability assay, fibroblasts; type: cell-based, human
Description: MCF-7, MDA-MB-231 (both human breast cancer cell lines), and fibroblast cells were obtained from American Type Culture Collection (ATCC, Manassas, VA, USA). DMEM and FBS used in a cell culture were from Gibco (USA). Glutamine, penicillin, and streptomycin were obtained from Quality Biologicals Inc. (USA). DMEM media was blended with 50 units/ml of penicillin, 50 μg/ml of streptomycin, 10% of FBS. All cell lines were cultured in 5% CO2 and fully humidified at 37 °C. Cells were cultured in Costar flasks and sub-confluent cells were detached with 0.05% trypsin and 0.02% ethylenediaminetetraacetic acid in calcium-free phosphate-buffered saline (PBS), counted in hemocytometers, and plated at 5 × 10^5 cells/well of six-well plates (Thermo Scientific, New York, NY, USA) in 2 ml of growth medium (DMEM without phenol red with 10% CPSR1). Cells reached about 80% of confluency at day 2, and in most cases such cells were used for the assays.
The viability of cultured cells was decided through assaying the reduction of MTT to formazan. In brief, MCF-7, MDA-MB-231, and fibroblast cells line were seeded at an initial density of 1 × 10^5 cells per well. Then, the cells were incubated at 37 °C for 24 h. Subsequently, cultured cells were treated with a medium containing concentrations (5, 10, 20, 30, 40, and 50 μM) of PtPz1–PtPz6 for 24 h and 48 h. After the incubation period, MTT was added into all wells in the final concentration of 0.5 mg/ml. After that, the cells were incubated at 37 °C for 4 h. Then, by removing the medium, 200 μl of DMSO was added to all wells. As a result, insoluble formazan was dissolved in DMSO (0.5%). At 570 nm (630 nm as a reference), the absorbance was measured in an Evolution 201 reader (Thermo Scientific, Waltham, MA).

[1] = system: MCF-7 breast cancer cells; assay: Mitochondrial membrane potential JC-1, MCF-7; type: cell-based, human; settings: MCF-7, 20 μM, 24 h; untreated 7.4%
Description: Disruption of the MMP was assessed using the lipophilic cationic probe 5,5′,6,6′-tetrachloro-1,1′,3,3′-tetraethylbenzimidazolcarbocyanine iodide (JC-1 MitoScreen kit; BD Biosciences Systems, San Jose, CA), as described previously. Briefly, unfixed cells were washed and re-suspended in PBS supplemented with 10 µg/ml of JC-1. Cells were then incubated for 15 min at room temperature in the dark, washed, and re-suspended in PBS for immediate BD FACSCanto II flow cytometry analysis. The percentage of cells with disrupted MMP was calculated using FACSDiva software (both from BD Biosciences Systems, San Jose, CA).

[2] = system: caspase-8 in MDA-MB-231 breast cancer cells; assay: FLICA caspase-8 activity, flow cytometry, MDA-MB-231; type: cell-based, human; settings: MDA-MB-231, 20 μM, 24 h
Description: Caspase-8 activity was measured using the FLICA Caspase 8 Assay Kit (ImmunoChemistry Technologies, Bloomington, MN, USA), according to the manufacturer’s instructions. Briefly, cultured MCF-7 and MDA-MB-231 breast cancer cells (1 × 10^6) were washed with cold PBS twice and re-suspended in buffer. We added 5 µl of diluted FLICA reagent and 2 µl of Hoechst 33342 to 93 µl of cell suspension and mixed by pipetting. The cells were incubated for 60 min at 37°C. After incubation, the cells were washed twice in 400 µl of apoptosis wash buffer and centrifuged at 300 × g. After the last wash, we re-suspended the cells in 100 µl of apoptosis wash buffer supplemented with 10 µg/ml PI. Analysis was performed using the BD FACSCanto II flow cytometer, and the results were analysed with FACSDiva software (both from BD Biosciences Systems, San Jose, CA).

[3] = system: MCF-7 breast cancer cells; assay: Cell cycle analysis by flow cytometry (PI), MCF-7; type: cell-based, human; settings: breast cancer cells (MCF-7), 20 μM, 24 h, versus control
Description: Distribution of cell cycle phases was analysed by flow cytometry. Briefly, MCF-7 and MDA-MB-231 cells were seeded into six-well plates at a density of 2.5 × 10^5 cells per well and treated with 20 μM of PtPz1–PtPz6 for 24 h. After incubation, the cells were harvested and then fixed with 1 ml of 70% ethanol and kept overnight at −20 °C. Before analysis, the cells were re-suspended in PBS, treated with 50 μg/ml of DNase-free RNase A Solution (Promega), and stained with 100 μg/ml of PI. The FACSCanto II flow cytometer (BD Biosciences Systems, San Jose, CA) was used to read the fluorescence.

[4] = system: human G1/S-specific cyclin D1 in MCF-7 cells; assay: Cyclin D1 ELISA in cell lysates, MCF-7; type: cell-based; settings: MCF-7, 20 μM, 24 h; untreated cells 2.6 ng/ml
Description: Cell lysates: Briefly, trypsinised cells were washed three times with cold PBS and centrifuged at 1000 g for 5 min at 4 °C. The cells (1 × 10^6) were suspended in lysis buffer for whole cell lysates. After centrifugation, the supernatants were frozen immediately at −70 °C. The concentration of human G1/S-specific cyclin D1 was measured. Cells without addition of compounds were treated as controls.
Determination of human G1/S-specific cyclin D1: The high sensitivity assay kit (EIAab) was used to determine the concentration of human G1/S-specific cyclin D1 in cell lysates. The microtiter plate provided in this kit has been pre-coated with an antibody specific to cyclin D1. Standards and samples were added to the appropriate microtiter plate wells. After 2 h of incubation at 37 °C, the plate was incubated with biotin-conjugated antibody for 1 h at 37 °C. Then microplate wells were aspirated and washed three times and then incubated with avidin conjugated to horseradish peroxidase (HRP). Then, a TMB substrate solution was added to each well. […] The enzyme–substrate reaction was terminated by the addition of a sulfuric acid solution and the color change was measured spectrophotometrically at a wavelength of 450 nm ± 2 nm. The concentration of cyclin D1 in the samples was determined by comparing the O.D. of the samples to the standard curve.

[5] = system: MCF-7 breast cancer cells; assay: Annexin V-FITC/PI flow cytometry, MCF-7; type: cell-based, human; settings: MCF-7, 20 μM, 24 h; for percent of cells with early and late apoptosis: control 8.5%
Description: (§1) To characterise the mode of cell death induced by PtPz1–PtPz6, a flow cytometry analysis was performed using Apoptosis Detection Kit II (BD Pharmingen, San Diego, CA), according to the manufacturer’s instructions. Cells (10000 cells measured) were analysed in a flow cytometer (BD FACSCanto II flow cytometer, San Jose, CA). Annexin V bound with high affinity to phosphatidylserine and thus could be used to identify cells in all stages of the programmed cell death. Propidium iodide (PI) stained cells with a disrupted cell membrane, and it could be used to identify late apoptotic and dead cells. Cells cultured in a drug-free medium were used as controls. […] Results were analysed with FACSDiva software (BD Biosciences Systems, San Jose, CA).

[6] = system: MDA-MB-231 breast cancer cells; assay: Annexin V-FITC/PI flow cytometry, MDA-MB-231; type: cell-based, human; settings: MDA-MB-231, 20 μM, 24 h; for percent of cells with early and late apoptosis: control 7.1%
Description: as §1

[7] = 24 h incubation, 5-50 μM, read-out: IC50 (cell viability, MTT)
[8] = 48 h incubation, 5-50 μM, read-out: IC50 (cell viability, MTT)

SMILES	IC50 (fibroblast cells; [7]) [µM]	IC50 (fibroblast cells; [8]) [µM]	percent of cells with decrease ΔΨm [1] [%]	increase in caspase-8 activity compared with the control [2]	percent of cells with active caspase-8 [2] [%]	accumulation of cells in G2/M phase [3] [fold]	concentration of cyclin D1 [4] [ng/mL]	percent of cells with early and late apoptosis [5] [%]	viable cells ([5]; control 89.7%) [%]	percent of cells with early and late apoptosis [6] [%]	viable cells ([6]; control 91.6%) [%]	IC50 (fibroblast cells; read-out: IC50 (additional test for cisplatin), 24 h, additional test in concentrations allowing to determine IC50) [µM]	IC50 (fibroblast cells; read-out: IC50 (additional test for cisplatin), 48 h, additional test in concentrations allowing to determine IC50) [µM]
Cc1cc(C)[n+]([Pt-2]2([n+]3c(C)cc(C)n3CO)[N](c3ccc(C(=N)N)cc3)N=[N+](c3ccc(C(=N)N)cc3)[Pt-2]([n+]3c(C)cc(C)n3CO)([n+]3c(C)cc(C)n3CO)[N](c3ccc(C(=N)N)cc3)N=[N+]2c2ccc(C(=N)N)cc2)n1CO.Cl.Cl.Cl.Cl.O.O [PtPz1, [Pt2(N-hydroxymethyl-3,5-dimethylpyrazole)4(berenil)2]·4HCl·2H2O]	24 ± 3	19 ± 2	91.7	about 10 fold	48.9	2.0	0.8						
Cc1cc(C)[n+]([Pt-2]2([n+]3[nH]c(C)cc3C)[N](c3ccc(C(=N)N)cc3)N=[N+](c3ccc(C(=N)N)cc3)[Pt-2]([n+]3[nH]c(C)cc3C)([n+]3[nH]c(C)cc3C)[N](c3ccc(C(=N)N)cc3)N=[N+]2c2ccc(C(=N)N)cc2)[nH]1.Cl.Cl.Cl.Cl.O.O [PtPz2, [Pt2(3,5-dimethylpyrazole)4(berenil)2]·4HCl·2H2O]	27 ± 2	24 ± 2	90.0	about 10 fold	45.8	2.0							
Cc1c[nH][n+]([Pt-2]2([n+]3[nH]cc(C)c3C)[N](c3ccc(C(=N)N)cc3)N=[N+](c3ccc(C(=N)N)cc3)[Pt-2]([n+]3[nH]cc(C)c3C)([n+]3[nH]cc(C)c3C)[N](c3ccc(C(=N)N)cc3)N=[N+]2c2ccc(C(=N)N)cc2)c1C.Cl.Cl.Cl.Cl.O.O [PtPz3, [Pt2(3,4-dimethylpyrazole)4(berenil)2]·4HCl·2H2O]	32 ± 1	28 ± 1	86.2		38.0	2.0							
Cc1ccn[nH]1.Cc1ccn[nH]1.Cc1ccn[nH]1.Cc1ccn[nH]1.Cl.Cl.Cl.Cl.N=C(N)c1ccc(N=N[N]([Pt])c2ccc(C(=N)N)cc2)cc1.N=C(N)c1ccc(N=N[N]([Pt])c2ccc(C(=N)N)cc2)cc1.O.O [PtPz5, [Pt2(5-methylpyrazole)4(berenil)2]·4HCl·2H2O]	35 ± 1	31 ± 2			37.9								
CCn1ccc[n+]1[Pt-2]1([n+]2cccn2CC)[N](c2ccc(C(=N)N)cc2)N=[N+](c2ccc(C(=N)N)cc2)[Pt-2]([n+]2cccn2CC)([n+]2cccn2CC)[N](c2ccc(C(=N)N)cc2)N=[N+]1c1ccc(C(=N)N)cc1.Cl.Cl.Cl.Cl.O.O [PtPz6, [Pt2(N-ethylpyrazole)4(berenil)2]·4HCl·2H2O]	> 50	> 50			21.1			17.2	80.9	18.6	79.4		
N.N.[Cl][Pt][Cl] [cisplatin, reference compound]		> 50			9.7			10.4		10.1		> 100	> 100
